Test results published in paper PMC8541353, “A Novel Phenylpyrrolidine Derivative: Synthesis and Effect on Cognitive Functions in Rats with Experimental Ishemic Stroke” (Molecules, 2021).

Assays:
[1] = system: rats with MCAO; assay: Cerebral infarct volume by MRI in transient MCAO model; type: in vivo, Wistar rats; conditions: for Infarct volume at 24 h: 24 h after MCAO, before treatment (group baseline); for Infarct volume by day 28: day 28 after MCAO, compound 1 125 mg kg^−1, piracetam 300 mg kg^−1 daily from 24 h to day 5, p = 0.17
Protocol: (§1) A MCAO animal model was used to characterize the effects of compound 1 on the development and resolution of stroke. At the baseline, we performed the MRI and hole-board test before MCAO surgery. Once animals recovered after the surgery, we stratified them based on their background psycho-emotional status and performed a control MRI to access whether the occlusion was sufficient or not. […] From 24 h to day 7, the neurological status was assessed daily according to the neurological scale (mNSS). By the end of day 7, animals underwent MRI. In addition, MRI was performed on days 14 and 28 (Shceme 3)The hole-board test was repeated on days 10 and 24. The degree of motor function impairment, the deficit of exploratory behavior, and the recovery process were assessed in the beam walking test (BWT), which was performed twice on days 12 and 14. An open field test was carried out on days 16 and 26.
Before conducting the experiments, the animals underwent the HBT and were allocated to groups based on their behavior score and weight. Kullback–Leibler divergence method for allocation based on two numerical parameters was used for allocation. We used a sum score for behavior tests and weight. Subsequently, two experimental series were performed. In the first series, rat behavior without stroke modeling after injection of compound 1 (experimental group, n = 10) or saline (control group, n = 10) was evaluated (Scheme 3a). […] Compound 1 was injected at a dose of 125 mg kg^−1 and an injection volume of 0.5 mL. […] For the experiments, the following predetermined exclusion criteria were used: (1) incomplete MCAO indicated by an incomplete lesion on magnetic resonance imaging (MRI) after 24 h [n = 4]and (2) post-operative weight loss of > 20% and severe animal condition within the first post-stroke 48 h [n = 3]. Animals reached humane endpoints based on the absence of nociceptive reflex withdrawal responses, hypothermia, and heart rate reduction to 100–150 beats min^−1. As steroid treatment could have influenced the experiment, rats were humanely euthanized according to the ethical protocol. The experiment design is presented in Scheme 3b.
The rats were anesthetized initially using 3% isoflurane and maintained with a mixture of 2–2.5% isoflurane and 97.5–98% atmospheric air (EZ-7000 Classic System, E-Z Anesthesia® Systems). […]
During the procedure, the rats were maintained under inhalation anesthesia as mentioned above. […] The volume of the hyperintensity ischemic stroke area was calculated by summing the areas of adjacent cross-sections using the following formula: Volume = (S1 + … + Sn) × (h + d), where S1, …, Sn are areas measured in n slices, h is the slice thickness, and d is the interval between slices.

[2] = system: rats with MCAO; assay: Beam walking test (BWT) after MCAO; type: in vivo, Wistar rats; design: key to Left forelimb score / Right forelimb score / Left hindlimb score / Right hindlimb score: score = errors + 0.5 × slides × 100/total number of steps; conditions: for Animals that failed to train for the BWT test: after MCAO, days 12–14; for Left forelimb score / Left hindlimb score / Right forelimb score / Right hindlimb score: day 14 after MCAO, mean ± SD
Protocol: as §1
The increased locomotor activity, expanded orientational research activity, and reduced anxiety and depressive behavior in rats treated with compound 1 highlighted the possible benefits of the compound in post-ischemic stroke management. As stroke affects not only locomotor activity but also the cognitive behavior, we conducted an additional beam walking test. It is proven that depression and anxiety in the post-stroke period increase the risk of mortality and affect the functional recovery of patients. There is a direct relationship between the severity of cognitive deficits, patients’ survival, and their successful social integration. Conventionally, BWT is aimed at finding motor deficits on the contralateral side of the brain lesion. However, based on the test methodology, which was testing animals before surgery and on the 12th–14th days after surgery, we can indirectly conclude whether the memory trace is preserved or lost. […] Most of the animals from the saline group sat still and one rat fell. Since the hippocampus, which is a structure responsible for the formation of both […] and long-term memory, is involved in the pathological process of ischemia, in rats, we hypothesized that the ability to reproduce and form a memorable trace can be also affected in our MCAO model. According to MRI data, the hippocampus was indeed affected by MCAO. Thus, compound 1 possibly helped to restore neural connections in the hippocampus as quickly as possible.
In the first experimental series, the following test systems were used: HBT (OpenScience, Russia), OFT (OpenScience), and LDT (OpenScience). The design for the second experimental series was as follows. All rat behavioral changes were evaluated during the four weeks after stroke simulation. Individuals who performed these procedures were double-blinded. General neurological disorders were assessed using the modified neurological severity score (mNSS). Motor and cognitive impairment were evaluated using the following functional tests: BWT (OpenScience), HBT (OpenScience), and OFT (OpenScience). The BWT was performed between postoperative days 12 and 14. In this test, motor dysfunction in all four limbs was evaluated; specifically, the number of steps, errors, and slides were counted. The overall score was calculated using the following formula: score = errors + 0.5 × slides × 100/total number of steps [47]. The beam apparatus consists of 165 cm beams with a flat surface of 10 mm or 6 mm width, resting 100 cm above the table top on two poles. A black box is placed at the end of the beam as the finish point. Nesting material from home cages is placed in the black box to attract the rat to the finish point. A lamp (with 60-watt light bulb) is used at the start to stimulate the animals to move towards the end.

[3] = Reported BBB permeability; conditions: compound 1, no reference given; own data
From the text: Table 5 Predicted permeability of ampakines in silico and in the blood–brain barrier (BBB). | column: Literature Report of BBB Permeability

[4] = system: patients with cerebral ischemia-induced short-term memory/cognitive deterioration; conditions: after piracetam; cited from earlier work

SMILES | Infarct volume at 24 h [1] [mm^3] | Infarct volume by day 28 [1] [mm^3] | Animals that failed to train for the BWT test [2] | Left forelimb score [2] | Left hindlimb score [2] | Right forelimb score [2] | Right hindlimb score [2] | BBB Permeability (column Literature Report of BBB Permeability) [3] | Patients who improved their memory and cognitive functions [4]
O=C(CN1CC(c2ccccc2)CC1=O)NCCS(=O)(=O)[O-].[K+] (stereo not shown) [Compound 1, potassium 2-[2-(2-oxo-4-phenylpyrrolidin-1-yl)acetamido]ethane-1-sulfonate] | 133.6 ± 24.1 | 91.2 ± 18.9 | No animals failed | 42.2 ± 28.0 | 28.8 ± 15.3 | 11.6 ± 13.8 | 45.8 ± 30.4 | Low | –
NC(=O)CN1CCCC1=O [Piracetam, reference compound] | 128.5 ± 15.5 | 86.0 ± 13.5 | more than half of the animals and five | 32.8 ± 26.4 | 24.8 ± 22.2 | 12.4 ± 16.0 | 36.0 ± 30.4 | – | around 25%
